# Legend:
# [1] = target: T1, AKT1 (Homo sapiens, UniProt P31749); assay: AKT1 kinase activity inhibition (KinEASE-STK S3 HTRF kit); assay type: biochemical
# T1 construct: purchased Invitrogen P2999
# Description: (§1) The mean inhibition of kinase and the IC50 value were measured using a NovoStar microplate reader (BMG, Germany).
# (§2) The following methods were used to determine the inhibitory effect of the compound of formula I on the kinase activity of AKT1/AKT2/AKT3 in vitro. The experimental method is briefly described as follows:
# (§3) The enzyme activity of AKT1 (Invitrogen, P2999), AKT2 (Invitrogen, PV3184), and AKT3 (Invitrogen, PV3185) was determined using a KinEASE-STK S3 kit (Cisbio, 62ST3PEC). Test compounds were each first subjected to 3-fold gradient dilution with DMSO from 500 μM to obtain a total of 11 concentrations. The 5× buffer in the kit was diluted to 1× buffer, and DTT (Sigma, 43816-10ML) and MgCl2 were added to make the buffer contain 1 mM DTT and 5 mM MgCl2. Compounds were each subjected to 20-fold dilution with 1× buffer for later use. […] The mixture was incubated at room temperature for 60 min, values of signals emitted at […] and 620 nm after excitation at 337 nm were measured by using an HTRF module of a multi-functional microplate detector (BMG Labtech, PHERAstar FS), and the ratio of the readings was multiplied by 10,000 to obtain a ratio value. Dose-response curves were drawn according to the concentration of the compounds and the ratio values by using Graphpad Prism software, and the IC50 values for the inhibitory activity of the compounds were calculated.
# [2] = target: T2, AKT2 (Homo sapiens, UniProt P31751); assay: AKT2 kinase activity inhibition (KinEASE-STK S3 HTRF kit); assay type: biochemical
# T2 construct: purchased Invitrogen PV3184
# Description: as §1, §2, §3
# [3] = target: T3, AKT3 (Homo sapiens, UniProt Q9Y243); assay: AKT3 kinase activity inhibition (KinEASE-STK S3 HTRF kit); assay type: biochemical
# T3 construct: purchased Invitrogen PV3185
# Description: as §1, §2, §3
# [4] = Pharmacokinetic test in nude mice, intragastric administration; assay type: in vivo, Balb/c nude mice; conditions: i.g., 50 or 100 mg/kg
# Description: (§4) The drug concentration in the plasma of the test animals (Balb/c nude mice) at different time points after intragastric administration (i.g.) of the test compounds was determined by using an LC/MS/MS method. The pharmacokinetic performance of the compound of formula I in nude mice was studied and their pharmacokinetic profile was evaluated.
# 18 Balb/c nude mice, female, divided into 2 groups and purchased from Vital River Laboratory Animal Technology Co., Ltd.
# A certain amount of compound was weighed out, and 99.8% (0.5% methylcellulose) was added into the compound, and then 0.2% Tween was added. The mixture was subjected to ultrasonic treatment to obtain a suspension, which was stirred for administration.
# The nude mice were subjected to intragastric administration with a dose of 50 mg/kg or 100 mg/kg and an administration volume of 0.2 mL/10 g. […]
# The content of the test compounds in the nude mice plasma after intragastric administration of different concentrations of the compound was determined: 20 μL of nude mouse plasma at each time point after administration was mixed with 50 μL of internal standard solution (camptothecin, 100 ng/mL) and 200 μL of acetonitrile, and the mixture was vortexed for 5 min and centrifuged for 10 min at 3700 rpm. […]
# [5] = Pharmacokinetic test in rats, injection (i.v.); assay type: in vivo; conditions: SD rats, 1 mg/kg
# Description: as §4, with “(SD rats)” for “(Balb/c nude mice)”, “injection (i.v.)” for “intragastric administration (i.g.)”, “rats” for “nude mice”
# 8 SD rats, half male and half female, divided into 2 groups, purchased from Vital River Laboratory Animal Technology Co., Ltd.
# A certain amount of the compound was weighed out, and 5% of DMSO, 5% of Tween 80, and 90% of normal saline were added to obtain a colorless and clear solution.
# The rats were subjected to administration by injection with a dose of 1 mg/kg and an administration volume of 5 mL/kg.
# The test compound was administered by injection to the rats, and 0.2 mL of blood was collected from the orbit before administration and 5 min, 0.25 h, 0.5 h, 1.0 h, 2.0 h, 4.0 h, 8.0 h, 11.0 h, and 24.0 h after administration. […]
# The content of the test compounds in the rat plasma after administration by injection of different concentrations of the compound was determined: 25 μL of rat plasma at each time point after administration was mixed with 50 μL of internal standard solution (camptothecin, 100 ng/mL) and 200 μL of acetonitrile, and the mixture was vortexed for 5 min and centrifuged for 10 min at 3700 rpm. […]
# T2 sequence (P31751 whole entry): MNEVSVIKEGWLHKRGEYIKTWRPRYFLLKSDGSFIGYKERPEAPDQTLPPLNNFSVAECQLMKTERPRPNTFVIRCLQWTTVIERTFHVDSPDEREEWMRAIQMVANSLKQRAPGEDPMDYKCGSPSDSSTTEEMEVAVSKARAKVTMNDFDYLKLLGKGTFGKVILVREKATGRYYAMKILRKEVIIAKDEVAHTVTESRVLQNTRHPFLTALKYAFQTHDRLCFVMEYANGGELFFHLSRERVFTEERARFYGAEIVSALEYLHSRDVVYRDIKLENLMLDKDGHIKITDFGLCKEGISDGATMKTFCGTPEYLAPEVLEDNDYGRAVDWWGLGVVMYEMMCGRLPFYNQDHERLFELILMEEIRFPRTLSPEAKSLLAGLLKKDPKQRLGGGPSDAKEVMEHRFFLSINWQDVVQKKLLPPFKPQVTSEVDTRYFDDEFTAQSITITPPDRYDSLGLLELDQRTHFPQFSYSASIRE
# T1 sequence (P31749 whole entry): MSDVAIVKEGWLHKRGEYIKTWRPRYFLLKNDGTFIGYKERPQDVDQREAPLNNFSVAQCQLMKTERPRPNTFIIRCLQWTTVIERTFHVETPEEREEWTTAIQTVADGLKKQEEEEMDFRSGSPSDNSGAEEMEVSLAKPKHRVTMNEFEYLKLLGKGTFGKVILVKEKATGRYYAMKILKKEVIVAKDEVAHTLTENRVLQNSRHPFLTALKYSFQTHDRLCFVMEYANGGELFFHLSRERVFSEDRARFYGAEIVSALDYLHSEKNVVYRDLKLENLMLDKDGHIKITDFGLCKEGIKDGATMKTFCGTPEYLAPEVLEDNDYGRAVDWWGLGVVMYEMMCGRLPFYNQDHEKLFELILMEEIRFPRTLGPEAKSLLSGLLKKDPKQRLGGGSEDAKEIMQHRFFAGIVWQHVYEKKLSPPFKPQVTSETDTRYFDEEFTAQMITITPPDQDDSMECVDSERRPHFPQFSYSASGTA
# T3 sequence (Q9Y243 whole entry): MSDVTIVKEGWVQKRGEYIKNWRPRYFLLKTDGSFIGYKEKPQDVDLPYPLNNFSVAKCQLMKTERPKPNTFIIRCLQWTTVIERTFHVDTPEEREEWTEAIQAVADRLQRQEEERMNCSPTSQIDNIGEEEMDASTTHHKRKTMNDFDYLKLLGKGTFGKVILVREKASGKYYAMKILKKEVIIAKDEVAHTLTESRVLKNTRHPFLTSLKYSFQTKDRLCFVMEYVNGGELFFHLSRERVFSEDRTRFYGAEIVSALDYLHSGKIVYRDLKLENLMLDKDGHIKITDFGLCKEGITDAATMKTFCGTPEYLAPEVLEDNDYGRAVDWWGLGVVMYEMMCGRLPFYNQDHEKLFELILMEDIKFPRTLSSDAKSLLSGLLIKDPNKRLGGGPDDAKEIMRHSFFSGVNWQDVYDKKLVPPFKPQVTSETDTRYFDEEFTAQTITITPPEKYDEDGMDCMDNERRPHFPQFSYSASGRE
smiles,measurement,setting,value
CC(C)NC[C@@H](C(=O)N1C2CCC1CN(c1ncnc3c1C(C)(C)C(=O)N3)C2)c1ccc(Cl)cc1 [Compound of formula I],inhibitory effect on AKT1 enzyme (conclusion),[1],good inhibitory effect
same,inhibitory effect on AKT2 enzyme (conclusion),[2],good inhibitory effect
same,inhibitory effect on AKT3 enzyme (conclusion),[3],good inhibitory effect
same,pharmacokinetic absorption (conclusion),[4],good pharmacokinetic absorption
same,pharmacokinetics (conclusion),[5],good pharmacokinetics

# Source: patent US20250145641A1, “FUSED BICYCLIC DERIVATIVE, PHARMACEUTICALLY ACCEPTABLE SALT, CRYSTAL FORM THEREOF AND PREPARATION METHOD THEREFOR” (JIANGSU HENGRUI PHARMACEUTICALS CO., LTD., priority 2021, published 2025)
